Series [1] concerns Jurkat T cells expressing tEGFR. Description: T cell activation by rcSso7d-based CARs (luciferase-based cytotoxicity assay, IFN-γ ELISA), Example 2. The following applies: primary human T cells, 4 hours, E:T 2:1; for cytotoxicity: binder fused to "Ser" CAR backbone (monovalent interaction). The protocol: Luciferase-expressing tumour cells were co-cultured with CAR T cells at an E:T cell ratio of 2:1 with 10,000 target cells/well in white round-bottom 96 well plates (Sigma Aldrich) for 4 hours at 37° C. in cytotoxicity assay medium, consisting of phenol-free RPMI (Thermo Scientific), 10% FCS, 1% L-Glutamine (Thermo Scientific) and 1% penicillin-streptomycin. Finally, remaining living cells were quantified by determination of the residual luciferase activity of the co-culture. After equilibration to room temperature for 10 minutes, luciferin was added to the cell suspension (150 μg/mL final concentration; Perkin Elmer) and luciferase activity was measured 20 minutes later using the ENSPIRE Multimode plate reader. The percentage of specific lysis was determined with the following formula:
% specific lysis=100−((RLU from well with effector and target cell co-culture)/(RLU from well with target cells only)×100)).
Cytokine secretion of primary CAR T cells was assessed by co-cultivation with target cells at E:T ratios of 1:1 or 2:1 in flat-bottom 96 well plates for 4 hours or 24 hours at 37° C. In some experiments, released cytokines were quantified in the supernatants from the co-culture experiments for determining cytotoxicity. The supernatants were centrifuged (1600 rpm, 7 minutes, 4° C.) to remove remaining cells and debris and were subsequently frozen at −80° C. For analysis of secreted IFN-γ, ELISA was performed using the Human IFN gamma ELISA Ready-SET-Go!® kit (eBioscience) according to the manufacturer's instructions. Measurements were conducted using the ENSPIRE Multimode plate reader.

For series [2], the system named is human EGFR. Description: Binding affinities of rcSso7d-based antigen binding moieties (titration on tEGFR Jurkat T cells, SPR on hEGFR-Fc). The following applies: comparison in words; own values only in FIG. 2; read-out: affinity of the binding moiety, stated as comparable to that of scFv 4D5-5. The protocol: Jurkat T cells were engineered to express high levels of the respective tumour antigen. […] After washing in PBS, cells were resuspended in PBS containing 0.1% BSA (Sigma Aldrich) and incubated with varying concentrations of the binder proteins fused to sfGFP in order to determine the affinities of the antigen binding moieties towards the respective tumour antigen. After incubation for 1 hour at 4° C. while shaking, plates were centrifuged (450 g, 7 minutes, 4° C.), the supernatant was discarded and cells were acquired with a BD LSRFortessa. Cells were kept on ice to avoid endocytosis. The Kd was obtained by curve fitting using Microsoft Excel (Microsoft Corporation).
SPR experiments were performed with a Biacore T200 instrument (GE Healthcare). All experiments were conducted in degassed and filtered PBS, pH 7.4, containing 0.1% BSA and 0.05% Tween-20 (Merck Millipore), at 25° C. hEGFR-Fc (R&D) was immobilized on a Protein A sensor chip (GE Healthcare) at a flow rate of 10 μL/min for 60 seconds at a concentration 6.67 μg/mL. To determine the affinity of rcSso7d-based antigen binding moieties, five concentrations (depending on the expected Kd of the antigen binding moiety) of the respective protein were injected at a flow rate of 30 μL/min for 15 seconds in the single-cycle kinetic mode, followed by a dissociation step (30 seconds). […]

Series [3] has as its target human EGFR. The following applies: Traxlmayr et al., J Biol Chem. 2016; cited from earlier work.
The test system of series [4] is Jurkat T cells expressing tHER2. Description: Functional screening of affibody-based CARs, luciferase-based cytotoxicity assay, Example 4. Format: cell-based, human. The following applies: affibody variant in CAR backbone 8ser-BB-FKBP (36V)-3z; 10 nM AP20187 or DMSO; 4 hours, E:T 2:1.
Description: Luciferase-expressing tumour cells were co-cultured with CAR T cells at an E:T cell ratio of 2:1 with 10,000 target cells/well in white round-bottom 96 well plates (Sigma Aldrich) for 4 hours at 37° C. in cytotoxicity assay medium, consisting of phenol-free RPMI (Thermo Scientific), 10% FCS, 1% L-Glutamine (Thermo Scientific) and 1% penicillin-streptomycin. Finally, remaining living cells were quantified by determination of the residual luciferase activity of the co-culture. After equilibration to room temperature for 10 minutes, luciferin was added to the cell suspension (150 μg/mL final concentration) and luciferase activity was measured 20 minutes later using the ENSPIRE Multimode plate reader. The percentage of specific lysis was calculated with the following formula:
Dimerization of transgenes was induced prior to co-cultivation experiments. […] The homodimerization agent AP20187 was diluted in cell culture medium and was added at 10 nM final concentration. Addition of the vehicle control DMSO at the same concentration served as control. Cells were incubated at 37° C. for 30 minutes to ensure efficient dimerization of transgenes and subsequently used for in vitro experiments.

Read-outs that look alike come from different tables or passages of the source.

For the substance “E11.4.1-G25A: alanine mutant G25A of rcSso7d E11.4.1, EGFR binding moiety”, the cytotoxicity entry in series [1] is reported as “triggered potent cytotoxicity also upon monovalent interaction”.
In the case of “E11.4.1-G32A: low affinity alanine mutant G32A of rcSso7d E11.4.1, EGFR binding moiety with the lowest tested affinity”, the Kd in the series on human EGFR [2] is around 1100 nM. Besides, the “T cell activation in response to target cells” value in series [1] (binder fused to cysteine-containing CAR backbone ("Cys", bivalent)) is listed as “efficiently triggered T cell activation”; in series [1] (binder fused to serine-containing CAR backbone ("Ser", monovalent)), “did not or only poorly trigger the T cells”.
For “rcSso7d E11.4.1: well characterized rcSso7d-based antigen binding moiety which binds to human EGFR (Traxlmayr et al.) [reference compound]”, the cytotoxicity result in series [1] is recorded as “triggered potent cytotoxicity also upon monovalent interaction”. Also, the Kd on human EGFR [3] is 19 nM.
For the substance “zHER2-WT: high-affinity HER2 affibody with framework mutations N23A and S33K”, the “capacity to trigger cytotoxicity in T cells in presence or absence of AP20187” value in series [4] was “triggered efficient target cell lysis independent of presence of AP20187”.

The record behind these values is patent publication US20220041687A1, “A GROUP OF CHIMERIC ANTIGEN RECEPTORS (CARS)” (ST. ANNA KINDERKREBSFORSCHUNG, priority 2018, published 2022).
